Tested on: SCID mice
Assay: Preclinical dosimetry from biodistribution in mice, extrapolated to 70-kg Standard Adult (OLINDA/EXM 1.0)
Format: in vivo
Conditions: […] bladder voiding interval
Experimental: 3-5 mice were injected per timepoint with a mean 25.6±3.6 MBq of 18F-rhPSMA-7 and 28.5±4.8 MBq of 18F-rhPSMA-7.3, respectively. Mice, severe combined immunodeficiency (SCID) were used for the experiments.
Mice were sacrificed at the following timepoints: • ^18F-rhPSMA-7: 10, 20, 40, 60, 120 and 180 minutes after administration. • ^18F-rhPSMA-7.3: 10, 60, 120, 180 and 300 minutes after administration.
Urine, blood, heart, lung, spleen, pancreas, liver, stomach (emptied), small intestine (emptied), large intestine (emptied), kidneys, bladder, testis, fat, muscle (partial, femoral), femur, tail and brain. Urine was collected with a pipette in the CO2 gas chamber. In case of missing urination in the chamber the bladder was aspirated with an insulin syringe. Blood was withdrawn instantly after sacrifice with an insulin syringe from the heart. All other tissues and organs were dissected and transferred directly in plastic containers.
The counting rates of measurement samples were automatically corrected for decay. The radioactivity distribution ratios (unit: percentage of the injected dose (% ID) in the measurement samples were determined using the equation below. The sum of the counting rates from all measurement samples obtained from one mouse was designated as the counting rate for administrated radioactivity.
The radioactivity distribution ratio per unit weight of the measurement sample (unit: % ID/g) excluding urine and feces samples was determined by using the equation below. The weight of the measurement sample was determined by subtraction of the empty measurement container from the container including the sample.
For consistency of statistical calculations for each radiotracer the same number of time-points for ^18F-rhPSMA-7 and ^18F-rhPSMA-7.3 was used. Therefore, for ^18F-rhPSMA-7 the 10 min and 20 min time points were combined creating a 15 min endpoint.
The time-integral of activity for the accumulation in the significant source organs (AUCs) were generated both with numerical integration and physical decay according to J Juan et al., Journal of Pharmaceutical Sciences, 1993, 82:762-763.
In brief, to calculate a human dosimetry from the biodistribution in the mice, an extrapolation was necessary to account for the differences between the animals and humans. Normal-organ radiation doses were estimated for the 70-kg Standard Adult anatomic model using time-depending organ activity concentrations (in percent of the injected dose per gram, % ID/g) and total-body activities measured in the biodistribution studies in mice.
Tissue activity concentrations in mice were converted to tissue fractional activities in the 70-kg Standard Adult using the relative fractional organ masses in the Standard Adult and the “standard” 25-gramm mouse. Time-dependent total-body activity was fit to an exponential function and the difference between the injected activity and the total-body activity was assumed to be excreted to the urine because activity concentrations in the liver and GI tracer were low at all time points studied.
Organ residence time was calculated by numerical integration using the trapezoidal rule and the rest-of-body ^18F residence times was calculated as the difference between the total-body residence time and the sum of the organ and urine residence times. The bladder contents residence time was estimated using the dynamic voiding model in the OLINDA/EXM 1.0 dosimetry software. Finally, the Standard Adult mean organ dose equivalents (in mSv/MBq) and effective dose (also in mSv/MBq) were then calculated using OLIN DA/EXM 1.0.
Final calculation of radiation absorbed dose and dosimetry from biodistribution in mice: The tissues or organs in which a significant accumulation of radioactivity occurs (i.e., source organ) were kidney, spleen, lung, liver and heart. With respect to activity accumulation and clearance, a rapid clearance from blood and clearance to urine but relatively slow build-up in kidney was found.

CC(C)(C)[Si](F)(c1ccc(C(=O)NC[C@@H](NC(=O)CC[C@@H](C(=O)O)N2CCN(CC(=O)[O-])CCN(CC(=O)[O-])CCN(CC(=O)[O-])CC2)C(=O)N[C@H](CCCCNC(=O)CCC(=O)NCCC[C@@H](NC(=O)CC[C@H](NC(=O)N[C@@H](CCC(=O)O)C(=O)O)C(=O)O)C(=O)O)C(=O)O)cc1)C(C)(C)C.[Ga+3] [rhPSMA7.3, [^19F][^natGa]D-Dap-S-DOTAGA-rhPSMA7]
Pancreas dose Beta: 3.12E−03 mSv/MBq
Pancreas dose Photon: 8.29E−03 mSv/MBq
Pancreas dose Total: 1.14E−02 mSv/MBq
Red Marrow ED Cont.: 1.08E−03 mSv/MBq
Red Marrow EDE Cont.: 1.08E−03 mSv/MBq
Red Marrow dose Alpha: 0.00E000 mSv/MBq
Red Marrow dose Beta: 2.22E−03 mSv/MBq
Red Marrow dose Photon: 6.79E−03 mSv/MBq
Red Marrow dose Total: 9.01E−03 mSv/MBq
Skin ED Cont.: 6.95E−05 mSv/MBq
Skin EDE Cont.: 0.00E000 mSv/MBq
Skin dose Alpha: 0.00E000 mSv/MBq
Skin dose Beta: 3.12E−03 mSv/MBq
Skin dose Photon: 3.83E−03 mSv/MBq
Skin dose Total: 6.95E−03 mSv/MBq
Small Intestine ED Cont.: 6.27E−05 mSv/MBq
Small Intestine EDE Cont.: 0.00E000 mSv/MBq
Small Intestine dose Alpha: 0.00E000 mSv/MBq
Small Intestine dose Beta: 3.12E−03 mSv/MBq
Small Intestine dose Photon: 9.42E−03 mSv/MBq
Small Intestine dose Total: 1.25E−02 mSv/MBq
Spleen ED Cont.: 1.34E−04 mSv/MBq
Spleen EDE Cont.: 1.60E−03 mSv/MBq
Spleen dose Alpha: 0.00E000 mSv/MBq
Spleen dose Beta: 1.52E−02 mSv/MBq
Spleen dose Photon: 1.15E−02 mSv/MBq
Spleen dose Total: 2.67E−02 mSv/MBq
Stomach Wall ED Cont.: 1.22E−03 mSv/MBq
Stomach Wall EDE Cont.: 0.00E000 mSv/MBq
Stomach Wall dose Alpha: 0.00E000 mSv/MBq
Stomach Wall dose Beta: 3.12E−03 mSv/MBq
Stomach Wall dose Photon: 7.02E−03 mSv/MBq
Stomach Wall dose Total: 1.01E−02 mSv/MBq
Testes ED Cont.: 0.00E000 mSv/MBq
Testes EDE Cont.: 0.00E000 mSv/MBq
Testes dose Alpha: 0.00E000 mSv/MBq
Testes dose Beta: 3.12E−03 mSv/MBq
Testes dose Photon: 8.96E−03 mSv/MBq
Testes dose Total: 1.21E−02 mSv/MBq
Thymus ED Cont.: 4.10E−05 mSv/MBq
Thymus EDE Cont.: 0.00E000 mSv/MBq
Thymus dose Alpha: 0.00E000 mSv/MBq
Thymus dose Beta: 3.12E−03 mSv/MBq
Thymus dose Photon: 5.08E−03 mSv/MBq
Thymus dose Total: 8.20E−03 mSv/MBq
Thyroid ED Cont.: 4.14E−04 mSv/MBq
Thyroid EDE Cont.: 2.48E−04 mSv/MBq
Thyroid dose Alpha: 0.00E000 mSv/MBq
Thyroid dose Beta: 3.12E−03 mSv/MBq
Thyroid dose Photon: 5.15E−03 mSv/MBq
Thyroid dose Total: 8.27E−03 mSv/MBq
Total Body ED Cont.: 0.00E000 mSv/MBq
Total Body EDE Cont.: 0.00E000 mSv/MBq
Total Body dose Alpha: 0.00E000 mSv/MBq
Total Body dose Beta: 3.52E−03 mSv/MBq
Total Body dose Photon: 6.33E−03 mSv/MBq
Total Body dose Total: 9.86E−03 mSv/MBq
ULI Wall ED Cont.: 5.85E−05 mSv/MBq
ULI Wall EDE Cont.: 0.00E000 mSv/MBq
ULI Wall dose Alpha: 0.00E000 mSv/MBq
ULI Wall dose Beta: 3.12E−03 mSv/MBq
ULI Wall dose Photon: 8.57E−03 mSv/MBq
ULI Wall dose Total: 1.17E−02 mSv/MBq
Urinary Bladder Wall ED Cont.: 1.14E−02 mSv/MBq
Urinary Bladder Wall EDE Cont.: 1.36E−02 mSv/MBq
Urinary Bladder Wall dose Alpha: 0.00E000 mSv/MBq
Urinary Bladder Wall dose Beta: 1.56E−01 mSv/MBq
Urinary Bladder Wall dose Photon: 7.14E−02 mSv/MBq
Urinary Bladder Wall dose Total: 2.27E−01 mSv/MBq
Uterus ED Cont.: 1.18E−04 mSv/MBq
Uterus EDE Cont.: 1.41E−03 mSv/MBq
Uterus dose Alpha: 0.00E000 mSv/MBq
Uterus dose Beta: 3.12E−03 mSv/MBq
Uterus dose Photon: 2.04E−02 mSv/MBq
Uterus dose Total: 2.36E−02 mSv/MBq

From patent US12357711B2, “PSMA binding dual mode radiotracer and therapeutic” (Technische Universität München, priority 2019, dated 2025)
